Test results reported in the NIST ThermoML archive (doi:10.1021/je050010l).

Legend:
[1] = xn = mol fraction of the nth substance listed; settings: 100.8 kPa, Liquid; for viscosity: Capillary tube (Ostwald / Ubbelohde) method
[2] = refractive index (Na D-line) (dimensionless); xn = mol fraction of the nth substance listed; settings: 100.8 kPa, Liquid, Standard Abbe refractometry

CC(C)CC(C)(C)C [2,2,4-trimethylpentane] + CCO
Settings | mass density, 288.15 K [kg/m3] | mass density, 298.15 K [kg/m3] | mass density, 308.15 K [kg/m3] | refractive index, 288.15 K | refractive index, 298.15 K | refractive index, 308.15 K | viscosity, 288.15 K [mPa·s] | viscosity, 298.15 K [mPa·s] | viscosity, 308.15 K [mPa·s]
[1], x2 = 0 | 695.95 | 687.74 | 679.41 | – | – | – | 0.537 | 0.48 | 0.432
[1], x2 = 0.0502 | 697.2 | 688.84 | 680.36 | – | – | – | 0.532 | 0.473 | 0.424
[1], x2 = 0.1 | 698.76 | 690.33 | 681.76 | – | – | – | 0.535 | 0.476 | 0.426
[1], x2 = 0.15 | 700.55 | 692.11 | 683.52 | – | – | – | 0.542 | 0.48 | 0.429
[1], x2 = 0.2 | 702.53 | 694.07 | 685.43 | – | – | – | 0.551 | 0.487 | 0.434
[1], x2 = 0.25 | 704.71 | 696.21 | 687.56 | – | – | – | 0.564 | 0.497 | 0.441
[1], x2 = 0.3 | 707.1 | 698.57 | 689.88 | – | – | – | 0.58 | 0.51 | 0.451
[1], x2 = 0.35 | 709.71 | 701.17 | 692.45 | – | – | – | 0.601 | 0.526 | 0.462
[1], x2 = 0.4 | 712.6 | 704.03 | 695.3 | – | – | – | 0.625 | 0.543 | 0.476
[1], x2 = 0.45 | 715.8 | 707.2 | 698.44 | – | – | – | 0.652 | 0.565 | 0.492
[1], x2 = 0.5 | 719.31 | 710.68 | 701.91 | – | – | – | 0.682 | 0.588 | 0.51
[1], x2 = 0.55 | 723.22 | 714.59 | 705.8 | – | – | – | 0.718 | 0.615 | 0.531
[1], x2 = 0.6 | 727.55 | 718.9 | 710.11 | – | – | – | 0.755 | 0.645 | 0.554
[1], x2 = 0.65 | 732.37 | 723.73 | 714.93 | – | – | – | 0.797 | 0.677 | 0.58
[1], x2 = 0.7 | 737.81 | 729.14 | 720.34 | – | – | – | 0.843 | 0.715 | 0.609
[1], x2 = 0.75 | 743.99 | 735.34 | 726.54 | – | – | – | 0.894 | 0.755 | 0.642
[1], x2 = 0.8 | 751.11 | 742.37 | 733.58 | – | – | – | 0.952 | 0.801 | 0.678
[1], x2 = 0.85 | 759.27 | 750.54 | 741.75 | – | – | – | 1.018 | 0.854 | 0.72
[1], x2 = 0.9 | 768.81 | 760.17 | 751.44 | – | – | – | 1.095 | 0.915 | 0.769
[1], x2 = 0.95 | 780.26 | 771.59 | 762.84 | – | – | – | 1.19 | 0.991 | 0.828
[2], x2 = 0 | – | – | – | 1.39404 | 1.389 | 1.38395 | – | – | –
[2], x2 = 0.0502 | – | – | – | 1.39319 | 1.3881 | 1.38297 | – | – | –
[2], x2 = 0.1 | – | – | – | 1.39241 | 1.3873 | 1.38217 | – | – | –
[2], x2 = 0.15 | – | – | – | 1.39162 | 1.38651 | 1.38138 | – | – | –
[2], x2 = 0.2 | – | – | – | 1.39081 | 1.38569 | 1.38056 | – | – | –
[2], x2 = 0.25 | – | – | – | 1.38996 | 1.38485 | 1.37972 | – | – | –
[2], x2 = 0.3 | – | – | – | 1.38907 | 1.38397 | 1.37885 | – | – | –
[2], x2 = 0.35 | – | – | – | 1.38811 | 1.38304 | 1.37794 | – | – | –
[2], x2 = 0.4 | – | – | – | 1.38709 | 1.38204 | 1.37696 | – | – | –
[2], x2 = 0.45 | – | – | – | 1.38597 | 1.38099 | 1.37593 | – | – | –
[2], x2 = 0.5 | – | – | – | 1.38479 | 1.37984 | 1.3748 | – | – | –
[2], x2 = 0.55 | – | – | – | 1.3835 | 1.37858 | 1.37358 | – | – | –
[2], x2 = 0.6 | – | – | – | 1.38209 | 1.37722 | 1.37227 | – | – | –
[2], x2 = 0.65 | – | – | – | 1.38055 | 1.37573 | 1.37083 | – | – | –
[2], x2 = 0.7 | – | – | – | 1.37884 | 1.37408 | 1.36922 | – | – | –
[2], x2 = 0.75 | – | – | – | 1.37694 | 1.37225 | 1.36745 | – | – | –
[2], x2 = 0.8 | – | – | – | 1.37484 | 1.3702 | 1.3655 | – | – | –
[2], x2 = 0.85 | – | – | – | 1.37249 | 1.36792 | 1.3633 | – | – | –
[2], x2 = 0.9 | – | – | – | 1.36984 | 1.36536 | 1.36085 | – | – | –
[2], x2 = 0.95 | – | – | – | 1.36684 | 1.36248 | 1.35812 | – | – | –

CC(C)=O [acetone] + CCO
Settings | mass density, 288.15 K [kg/m3] | mass density, 298.15 K [kg/m3] | mass density, 308.15 K [kg/m3] | refractive index, 288.15 K | refractive index, 298.15 K | refractive index, 308.15 K | viscosity, 288.15 K [mPa·s] | viscosity, 298.15 K [mPa·s] | viscosity, 308.15 K [mPa·s]
[1], x1 = 0.05 | 794.4 | 785.59 | 776.66 | – | – | – | 1.126 | 0.944 | 0.793
[1], x1 = 0.1 | 794.86 | 785.84 | 776.66 | – | – | – | 0.985 | 0.829 | 0.703
[1], x1 = 0.15 | 795.23 | 786 | 776.61 | – | – | – | 0.873 | 0.741 | 0.632
[1], x1 = 0.2 | 795.5 | 786.08 | 776.53 | – | – | – | 0.783 | 0.669 | 0.575
[1], x1 = 0.25 | 795.75 | 786.16 | 776.41 | – | – | – | 0.709 | 0.61 | 0.527
[1], x1 = 0.3 | 795.99 | 786.23 | 776.28 | – | – | – | 0.649 | 0.561 | 0.487
[1], x1 = 0.35 | 796.18 | 786.24 | 776.12 | – | – | – | 0.598 | 0.521 | 0.453
[1], x1 = 0.4 | 796.34 | 786.23 | 775.96 | – | – | – | 0.556 | 0.486 | 0.426
[1], x1 = 0.45 | 796.46 | 786.21 | 775.79 | – | – | – | 0.518 | 0.457 | 0.403
[1], x1 = 0.4999 | 796.57 | 786.19 | 775.63 | – | – | – | 0.488 | 0.431 | 0.383
[1], x1 = 0.55 | 796.68 | 786.17 | 775.47 | – | – | – | 0.461 | 0.409 | 0.364
[1], x1 = 0.6 | 796.77 | 786.13 | 775.3 | – | – | – | 0.438 | 0.39 | 0.349
[1], x1 = 0.65 | 796.84 | 786.07 | 775.13 | – | – | – | 0.418 | 0.373 | 0.335
[1], x1 = 0.7 | 796.86 | 786 | 774.96 | – | – | – | 0.401 | 0.358 | 0.322
[1], x1 = 0.75 | 796.88 | 785.9 | 774.77 | – | – | – | 0.386 | 0.345 | 0.312
[1], x1 = 0.8 | 796.91 | 785.84 | 774.59 | – | – | – | 0.373 | 0.334 | 0.303
[1], x1 = 0.8501 | 796.9 | 785.73 | 774.4 | – | – | – | 0.363 | 0.325 | 0.295
[1], x1 = 0.9 | 796.92 | 785.66 | 774.23 | – | – | – | 0.353 | 0.317 | 0.288
[1], x1 = 0.95 | 796.91 | 785.57 | 774.08 | – | – | – | 0.344 | 0.309 | 0.281
[1], x1 = 1 | 796.87 | 785.47 | 773.91 | – | – | – | 0.334 | 0.302 | 0.274
[2], x1 = 0.05 | – | – | – | 1.36354 | 1.35919 | 1.35486 | – | – | –
[2], x1 = 0.1 | – | – | – | 1.3636 | 1.35915 | 1.3547 | – | – | –
[2], x1 = 0.15 | – | – | – | 1.36366 | 1.35909 | 1.35454 | – | – | –
[2], x1 = 0.2 | – | – | – | 1.36361 | 1.35899 | 1.35435 | – | – | –
[2], x1 = 0.25 | – | – | – | 1.36357 | 1.35887 | 1.35414 | – | – | –
[2], x1 = 0.3 | – | – | – | 1.3635 | 1.35873 | 1.35391 | – | – | –
[2], x1 = 0.35 | – | – | – | 1.36343 | 1.35857 | 1.35369 | – | – | –
[2], x1 = 0.4 | – | – | – | 1.36334 | 1.35842 | 1.35346 | – | – | –
[2], x1 = 0.45 | – | – | – | 1.36324 | 1.35826 | 1.35324 | – | – | –
[2], x1 = 0.4999 | – | – | – | 1.36313 | 1.35809 | 1.353 | – | – | –
[2], x1 = 0.55 | – | – | – | 1.36301 | 1.3579 | 1.35276 | – | – | –
[2], x1 = 0.6 | – | – | – | 1.36289 | 1.35771 | 1.35251 | – | – | –
[2], x1 = 0.65 | – | – | – | 1.36275 | 1.35753 | 1.35228 | – | – | –
[2], x1 = 0.7 | – | – | – | 1.36261 | 1.35734 | 1.35203 | – | – | –
[2], x1 = 0.75 | – | – | – | 1.36246 | 1.35713 | 1.35177 | – | – | –
[2], x1 = 0.8 | – | – | – | 1.3623 | 1.35692 | 1.35152 | – | – | –
[2], x1 = 0.8501 | – | – | – | 1.36214 | 1.35673 | 1.35127 | – | – | –
[2], x1 = 0.9 | – | – | – | 1.36198 | 1.35651 | 1.35102 | – | – | –
[2], x1 = 0.95 | – | – | – | 1.36177 | 1.35629 | 1.3508 | – | – | –
[2], x1 = 1 | – | – | – | 1.36152 | 1.35605 | 1.35057 | – | – | –
